Data taken from publication PMC5485989, “Role of Free Radicals and Biotransformation in Trichloronitrobenzene-Induced Nephrotoxicity In Vitro” (International Journal of Molecular Sciences, 2017).
Where “and” joins values, the source holds several entries; their conditions need not be identical. Equal entries are not always repeated. Marks after values point to notes of the source that are not given here.

Tests used:
renal cortical slices = conditions: 120 min incubations; cited from earlier work
[1] = system: isolated renal cortical cells (IRCC); assay: Time and concentration cytotoxicity study, LDH release in IRCC; type: cell-based, male Fischer 344 rats; conditions: for Cytotoxicity (LDH release), time and concentration response: 0.5 or 1.0 mM, 15-120 min, significant difference from DMSO control, p < 0.05
Protocol: To determine the comparative nephrotoxic potential of the four TCNBs in IRCC, a time and concentration response study was performed starting at 15 min and 0.5 or 1.0 mM and adjusting the times tested based on the results (Figure 2).

[2] = system: isolated renal cortical cells (IRCC); assay: Effect of antioxidant or biotransformation inhibitor pretreatment on TCNB cytotoxicity, LDH release in IRCC; conditions: 1.0 mM 2,3,4-TCNB alone, 60 min; one value per pretreatment experiment; mean ± S.E., n = 4
Protocol: Untreated rats were anesthetized with pentobarbital (75 mg/kg, i.p.) and isolated renal cortical cells (IRCC) were obtained by using the collagenase perfusion method. Initial cell viability was determined by measuring trypan blue (2% w/v) exclusion and lactate dehydrogenase (LDH) release. […] IRCC were then exposed to various concentrations of a TCNB (0, 0.5, or 1.0 mM) for 15, 30, 60, 90, or 120 min. Following the incubation period, flasks were removed and placed on ice. Samples (0.5 mL) were taken for LDH release assays. Briefly, the samples were centrifuged (3000× g, 3 min), the was supernatant decanted and saved, and the pellet was disrupted with 1 mL of 10% Triton X-100 solution to release cellular LDH activity. LDH activity was then determined in each fraction (supernatant and pellet) as previously described using a kinetic assay based on the amount of NADH produced from NAD [57]. The LDH released was expressed as % of total (supernatant plus pellet).
Concentrations used in these experiments were 0.5 mM (3,4,5-TCNB) or 1.0 mM (2,3,4-, 2,4,5- and 2,4,6-TCNB). Incubation times with a TCNB added were 30 min (3,4,5-TCNB), 60 min (2,3,4-TCNB), or 90 min (2,4,5- and 2,4,6-TCNB). The pretreatment times and concentrations for all of the pretreatments are shown below in Table 5.

[3] = system: isolated renal cortical cells (IRCC); assay: Protein carbonylation in IRCC (OxyBlot); type: cell-based, male Fischer 344 rats
Protocol: (§1) To determine if oxidative stress plays a role in 3,4,5-TCNB nephrotoxicity, experiments were conducted to determine the temporal aspects of free radical damage as evidenced by protein carbonylation (OxyBlot) and 4-hydroxynonenal (4-HNE) adduction.
(§2) Protein carbonylation was detected using OxyBlot™ Protein Oxidation (Millipore S7150; Temecula, CA, USA). Samples were prepared according to the manufacturer’s protocol and an equal amount of protein (25 µg) and volume were loaded in each lane of a 12.5% polyacrylamide gel and transferred to a nitrocellulose membrane (Whatman; 10-439-196; Dassel, Germany). The transfer was confirmed using a Memcode reversible protein stain kit (Pierce Biotechnology, Fisher Scientific) and the protein was used to normalize each lane. Membranes were incubated overnight at 4 °C with primary antibody (1:150) for OxyBlot. Goat anti-rabbit horse radish peroxidase (HRP, 1:300) was the secondary antibody. Protein with 4-hydroxynonenal (4-HNE) reduced Micahel adducts were prepared as described previously with the exception that 45 µg of protein was used for the gel. The membranes were developed using Amersham^TM ECLTM Western Blotting Reagents (GE Healthcare; Buckinghamshire, UK) and the results were viewed and analyzed using a Bio-Rad Chemidoc system with BioRad Chemidoc densitometry software (version 4.0.1, Catalog No. 170-9690, BioRad, Hercules, CA, USA).

[4] = system: isolated renal cortical cells (IRCC); assay: 4-HNE adduction in IRCC (Western blot); type: cell-based, male Fischer 344 rats; conditions: 0.5 or 1.0 mM, 15 or 30 min
Protocol: as §1, §2

kidney = system: kidney; design: method as in PMID 2576285; conditions: 1.0 mmol/kg, intraperitoneally, cited from earlier work

Row | SMILES | Lowest concentration inducing in vitro nephrotoxicity (increased LDH release and decreased pyruvate-stimulated gluconeogenesis) (renal cortical slices) [mM] | Cytotoxicity (LDH release), time and concentration response [1] | % of lactate dehydrogenase release, 2,3,4-TCNB [2] | Concentration at which cytotoxicity was evident ([1]; as early as 30 min) [mM] | Order of decreasing nephrotoxic potential ([1]; based on time of onset, lowest concentration required and magnitude of LDH release) | Protein carbonylation ([3]; 1.0 mM, 30 min, p = 0.017) | Protein carbonylation ([3]; 0.5 or 1.0 mM, 15 or 30 min) | 4-HNE levels [4] | Renal effects (kidney; 48 h after treatment) | Urinary creatinine and blood urea nitrogen (BUN) concentrations (kidney)
1 | O=[N+]([O-])c1ccc(Cl)c(Cl)c1Cl [2,3,4-TCNB, 2,3,4-trichloronitrobenzene] | 0.5 | exhibited cytotoxicity starting after 15 min (1.0 mM) and 60 min exposure (0.5 and 1.0 mM), but no cytotoxicity was observed at 15 min | 28 ± 2 ^c % and 21 ± 1 ^c % and 22 ± 1 ^c % and 18 ± 1 ^c % and 20 ± 2 ^c % and 23 ± 2 ^c % and 20 ± 1 ^c % and 19 ± 1 ^c % | – | – | – | – | – | – | –
2 | O=[N+]([O-])c1cc(Cl)c(Cl)c(Cl)c1 [3,4,5-TCNB] | 0.5 | induced cytotoxicity at 30 and 60 min (0.5 and 1.0 mM) but not at 15 min | – | 0.5 | most potent nephrotoxicant | slightly decreased | not increased | not increased | – | –
3 | O=[N+]([O-])c1ccc(Cl)cc1 [4-chloronitrobenzene] | – | – | – | – | – | – | – | – | induced diuresis, increased N-acetyl-β-D-glucosaminidase excretion, and caused swelling of the kidney | not altered
